Tests used:
Daoy xenografts = settings: systemic delivery, reference (3); cited from earlier work
[1] = reference (94), cited from earlier work
U87 GBM xenografts = settings: systemic delivery, reference (3); cited from earlier work
Nf1−/− astrocytes [2] = test: Cell number by trypan blue exclusion, Nf1−/− astrocytes; format: cell-based, mouse; settings: data not shown
Protocol: (§1) Culture and treatment of primary astrocytes. Primary cultures of astrocytes were prepared from post-natal day two Nf1^flox/flox mice as previously described (134) and in accordance with established Animal Studies Protocols at Washington University School of Medicine. Cultures were infected with adenovirus containing either Cre recombinase (Nf1−/−) or LacZ (Nf1+/+). Primary cultures of astrocytes were grown under standard adherent conditions in serum free media (DMEM/F12 or Neurobasal (Gibco-BRL)) in the presence or absence of 0.1 μg/ml CXCL12 (Peprotech) and 10 μM Forskolin for 24 hours, as indicated. Cell number was determined after 24 hours by trypan blue exclusion and the growth effects of CXCL12 were derived as follows: ((cell number in the presence of CXCL12—cell number cell in the absence of CXCL12)/cell number in the absence of CXCL12)×100.)
(§2) To determine the biological significance of CXCR4 activation to NF1 glioma biology, we next sought to evaluate the regulation of CXCL12 growth effects by neurofibromin in astrocytes. While the true cell of origin of astrocytomas remains unknown, we utilized primary cultures of cortical astrocytes as a model of a normal counterpart to astrocytoma cells. Astrocytes were derived from Nf1^flox/flox mice and rendered Nf1+/+ or Nf1−/− by infection with adenovirus encoding LacZ or Cre recombinase, respectively.

Nf1+/+ astrocytes [3] = test: Cell number by trypan blue exclusion, Nf1+/+ astrocytes; format: cell-based, mouse; settings: data not shown
Protocol: as §1, §2

CXCR4 = CXCR4 (Homo sapiens, UniProt P61073); test: Stimulated CXCR4 phosphorylation in LN428 GBM cells (western blot); format: cell-based; design: lysates from the glioblastoma cell line LN428, which is known to express high levels of CXCR4; endogenous in cells; host or cells: LN428 GBM cell line
Chain of CXCR4 (P61073 whole entry): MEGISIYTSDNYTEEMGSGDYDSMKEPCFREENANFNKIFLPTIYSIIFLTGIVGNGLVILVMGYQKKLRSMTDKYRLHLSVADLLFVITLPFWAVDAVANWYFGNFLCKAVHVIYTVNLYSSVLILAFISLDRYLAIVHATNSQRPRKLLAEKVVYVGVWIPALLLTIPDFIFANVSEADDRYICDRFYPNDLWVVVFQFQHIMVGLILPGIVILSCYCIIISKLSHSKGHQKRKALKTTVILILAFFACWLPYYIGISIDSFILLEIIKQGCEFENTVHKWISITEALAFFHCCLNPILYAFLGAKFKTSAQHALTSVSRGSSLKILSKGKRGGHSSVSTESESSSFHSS
Protocol: Cell Culture, transfections and stimulation of CXCR4 phosphorylation. The U87 glioblastoma multiforme (GBM, grade IV) cell line was obtained from the American Type Culture Collection. The LN428 GBM cell line was a kind gift of Dr Erwin van Meir (Winship Cancer Center, Emory University, Atlanta, Ga.). U87 cells were grown in minimum essential a media supplemented with 10% fetal bovine serum ((FBS), Biomedia, Foster City, Calif.). LN428 cells were grown in DMEM (Fisher, Pittsburgh, Pa.) supplemented with 10% horse serum (Sigma). All cells were grown in the presence of penicillin-streptomycin. The coding sequence for human CXCR4 was obtained by high fidelity RT-PCR (Superscript III Platinum, Invitrogen), and cloned into the expression vector pMSCVneo (Clontech, Palo Alto, Calif.). Transfections were performed with 0.3 μg of plasmid DNA in 20 μl Lipofectamine (Invitrogen)/35 mm^2 tissue culture dish for 9 hours according to the manufacturer's instructions. Cells recovered in Optimem supplemented with 10% FBS. Transfected and non-transfected cells were placed in serum free media for 24 hours prior to treatment with agents to stimulate CXCR4 phosphorylation. Treatment was usually for 0 or 10 minutes with 1 μg/ml CXCL12 (Peprotech, Rocky Hill N.J.), 4 μM 4-Phorbol 12-myristate 13-acetate (PMA) or 10 nM EGF. In some experiments, CXCL12 was washed away and cells were incubated for an additional 20 minutes in serum free media alone.
Western Blot Analysis. Whole-cell extracts were obtained by lysing cells with lysis buffer (20 mM Tris pH 7.4, 137 mM NaCl, 10% Glycerol and 1% Triton X-100) supplemented with phosphatase inhibitor cocktail set II (Calbiochem, La Jolla, Calif.) and protease inhibitors PMSF (1 mM), leupeptin (0.005 mg/ml) and aprotonin (0.005 mg/ml). The proteins (50-75 μg) were resolved with 10% Bis-Tris gels (Invitrogen) and transferred onto the nitrocellulose membrane Hybond ECL (Amersham, Piscataway, N.J.) according to standard protocols. Polyclonal anti-CXCR4 antibody was used at a 1:500 dilution and P338-CXCR4 and P339-CXCR4 directed antibodies were used at 1:100 dilutions overnight at 4° C. This was followed by incubation with horseradish peroxidase-conjugated secondary antibody (1:15,000; Bio-Rad). Peroxide activity was detected using the enhanced chemiluminescence Supersignal West Dura system (Pierce, Rockford, Ill.). Mouse anti-actin antibody at a concentration of 1:1500 was used as a loading control. Peptide competitions and lambda phosphatase treatment were performed as described above.
The utility of these antibodies for evaluating the relationship between ligand binding and CXCR4 function is dependent upon their ability to distinguish a ligand activated form of the receptor. Serum starvation increased CXCL12 responsiveness (data not shown), and for all of these experiments LN428 GBM cells were serum starved for 24 hours prior to CXCL12 treatment. Serum starved LN428 cells were treated with 1 μg/ml CXCL12 for 0 or 10 minutes and the abundance of phospho-CXCR4 was determined by western blot and immuno-localization in fixed cells. […] A similar CXCL12-induced increase in P339-CXCR4 (FIG. 3B), but not P338-CXCR4 (data not shown) immunoreactivity was seen by immunofluorescent analysis of paraformaldehyde fixed cells. After 10 minutes of exposure to CXCL12, P339-CXCR4 can be seen localized to the surface of LN428 cells (FIG. 3B). CXCL12 was then washed away and cells were incubated in its absence for an additional 20 minutes. Surface labeling declined as a function of time and P339-CXCR4 was seen accumulating intracellularly.
Whether this is the only kinase that can phosphorylate these residues is unclear. The observation that protein kinase C (PKC) stimulated CXCR4 internalization also depends upon phosphorylation of this region of the molecule raises the question of whether these sites might also be PKC phosphorylation sites (17, 19, 27, 28). […]

Nf1+/+ astrocytes [4] = test: Intracellular cAMP by ELISA, Nf1+/+ astrocytes; format: cell-based, mouse
Protocol: (§3) cAMP measurements. cAMP was measured by ELISA (Cayman Chemical Company, Ann Arbor, Mich. or Assay Designs, Ann Arbor, Mich.). Briefly, astrocyte cultures were lysed in 0.1 N HCl. After the removal of cellular debris, soluble cellular extract was dried down and resuspended in EIA buffer. Experimental samples and cAMP standard curve were acetylated to increase the sensitivity of the assay and incubated with cAMP ACHe tracer and cAMP EIA anti-serum overnight at 4° C. according to the manufacturer's instructions. After extensive washing, bound antibody was measured by spectrophotometric analysis. Concentrations of cAMP were derived from comparison with standard curve according to manufacturer's instructions.
(§4) We evaluated the time dependent changes in intracellular cAMP in Nf1+/+ and Nf1−/− astrocytes after exposure to 0.1 μg/ml CXCL12. […] However, in Nf1+/+ astrocytes, intracellular levels of cAMP rapidly recovered to baseline and oscillated between baseline and 40% of baseline over the 45-minute experimental period (FIG. 10B).
(§5) We hypothesized that if cooperative signaling between Nf1 loss and CXCR4 activation promotes tumor formation through the suppression of cAMP, then agents that alter intracellular cAMP should modulate CXCL12 responses. We treated astrocytes with the adenylyl cyclase (AC) activator forskolin in the presence and absence of CXCL12. […] In these experiments, forskolin elevated intracellular cAMP levels in both Nf1+/+ and Nf1−/− astrocytes with peak values of 17.8+/−0.4 and 19.4+/−4.5 pmol/mg of protein, respectively, after 24 hours of treatment. The effect of forskolin was not abrogated by co-treatment with CXCL12. Under these conditions, cAMP levels were 17.9+/−2.5 and 10.4+/−5.8 pmol/mg of total protein in Nf1+/+ and Nf1−/− astrocytes, respectively. […] The effect of forskolin on CXCL12-mediated Nf1−/− apoptosis was evidenced by changes in the percentage of Nf1−/− astrocytes in the sub-G0 fraction of the cell cycle (FIG. 11B). Thus while astrocyte growth is dependent upon MEK and PI3 kinase activity, CXCL12-induced Nf1−/− astrocyte growth requires the suppression of intracellular cAMP levels.

Nf1−/− astrocytes [5] = test: Intracellular cAMP by ELISA, Nf1−/− astrocytes; format: cell-based, mouse
Protocol: as §3, §4, §5

[6] = 1 μg/ml CXCL12, 4 μM PMA or 10 nM EGF
[7] = forskolin 10 μM co-treatment with CXCL12 0.1 μg/ml

Q: For `c1cc(CN2CCCNCCNCCCNCC2)ccc1CN1CCCNCCNCCCNCC1` [AMD 3100], which “intracranial growth of medulloblastoma xenografts” value (Daoy xenografts) is on record?
A: The value was “blocked the intracranial growth”.

Q: What about the toxicities ([1]; sustained dosing over a 10 day period) of the same compound?
A: Its toxicities is “mild toxicities”.

Q: What about the “white blood cell counts” value ([1]; throughout an 18 day follow-up period after cessation) of the same compound?
A: The value was “elevations of white blood cell counts”.

Q: What about the “intracranial growth of glioblastoma xenografts” value (U87 GBM xenografts) of the same compound?
A: Its value is “blocked the intracranial growth”.

Q: For `COc1cccc(-c2cc(=O)c3ccccc3o2)c1N` [PD98059], which astrocyte growth (Nf1−/− astrocytes [2]) is on record?
A: The astrocyte growth was “prevented growth”.

Q: What about the astrocyte growth (Nf1+/+ astrocytes [3]) of the same compound?
A: Its astrocyte growth is “prevented growth”.

Q: With `CCCCCCCCCCCCCC(=O)O[C@@H]1[C@@H](C)[C@@]2(O)[C@@H](C=C(CO)C[C@]3(O)C(=O)C(C)=C[C@@H]23)[C@@H]2C(C)(C)[C@]12OC(C)=O` [PMA, 4-Phorbol 12-myristate 13-acetate] as the compound, how does the P338 phosphorylation stimulated (CXCR4; [6]) read?
A: The P338 phosphorylation stimulated was “not”.

Q: What about the P339 phosphorylation (CXCR4; [6]) of the same compound?
A: Its P339 phosphorylation is “stimulated”.

Q: And the “P339-CXCR4 immunoreactivity compared with response to CXCL12” value (CXCR4; 4 μM PMA or 10 nM EGF)?
A: The value was “greater”.

Q: Which cAMP levels (Nf1+/+ astrocytes [4]; [7]) does the source give for `C=C[C@@]1(C)CC(=O)[C@]2(O)[C@@]3(C)[C@@H](O)CCC(C)(C)[C@@H]3[C@H](O)[C@H](OC(C)=O)[C@@]2(C)O1` [forskolin] here?
A: Its cAMP levels is 17.9+/−2.5 pmol/mg of total protein.

Q: And the “peak intracellular cAMP” value (Nf1+/+ astrocytes [4]; forskolin 10 μM, 24 hours)?
A: Its value is 17.8+/−0.4 pmol/mg of protein.

Q: What about the cAMP levels (Nf1−/− astrocytes [5]; [7]) of the same compound?
A: Its cAMP levels is 10.4+/−5.8 pmol/mg of total protein.

Q: What about the “peak intracellular cAMP” value (Nf1−/− astrocytes [5]; forskolin 10 μM, 24 hours) of the same compound?
A: The value was 19.4+/−4.5 pmol/mg of protein.
